Measurements: PMC4515248 (Applied Biochemistry and Biotechnology, 2015)

Biological target: T1, CuCDH (Cerrena unicolor, UniProt S5R9V1)
T1 construct: native secreted intact flavocytochrome (heme b plus FAD domains) purified from culture supernatant; signal peptide (18 aa) removed; precursor 771 aa
Test: UV-visible spectrum of purified enzyme
Format: binding
Settings: 100 mM sodium acetate, pH 4.5; oxidized and lactose-reduced

T1 sequence (S5R9V1 19-771): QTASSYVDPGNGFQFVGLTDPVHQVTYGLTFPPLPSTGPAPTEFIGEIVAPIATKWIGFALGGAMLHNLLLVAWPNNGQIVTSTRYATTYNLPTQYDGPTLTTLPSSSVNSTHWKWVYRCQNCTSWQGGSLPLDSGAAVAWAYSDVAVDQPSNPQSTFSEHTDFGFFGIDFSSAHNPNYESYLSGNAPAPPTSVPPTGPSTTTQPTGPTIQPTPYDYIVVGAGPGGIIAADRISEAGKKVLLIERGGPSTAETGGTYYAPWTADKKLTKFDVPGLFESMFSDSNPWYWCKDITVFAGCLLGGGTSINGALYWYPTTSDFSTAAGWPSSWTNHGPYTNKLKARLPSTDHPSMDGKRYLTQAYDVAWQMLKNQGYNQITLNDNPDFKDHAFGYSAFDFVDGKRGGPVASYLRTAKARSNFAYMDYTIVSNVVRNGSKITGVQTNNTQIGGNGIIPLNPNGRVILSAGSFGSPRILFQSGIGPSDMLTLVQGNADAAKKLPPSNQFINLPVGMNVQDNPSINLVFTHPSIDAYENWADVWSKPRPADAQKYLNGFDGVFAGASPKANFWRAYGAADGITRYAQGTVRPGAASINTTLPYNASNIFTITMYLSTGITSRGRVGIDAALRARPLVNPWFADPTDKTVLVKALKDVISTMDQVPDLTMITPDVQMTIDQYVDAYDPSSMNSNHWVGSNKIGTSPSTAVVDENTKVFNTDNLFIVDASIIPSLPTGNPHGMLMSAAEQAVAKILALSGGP

Cc1cc2nc3c(=O)[nH]c(=O)nc-3n(C[C@H](O)[C@H](O)[C@H](O)COP(=O)(O)OP(=O)(O)OC[C@H]3O[C@@H](n4cnc5c(N)ncnc54)[C@H](O)[C@@H]3O)c2cc1C [FAD]
UV-visible spectrum of purified enzyme: indicated the presence of heme and flavin cofactors in the protein
